What all share (conditions): human
Series [1] deals with NCI-N87 cells.
In series [2] the test system is HER2 positive JIMT-1 cells.
The subject of series [3] is HER2 positive NCI/ADR-RES cells (NCI/ADR-RES-HER2+).
In series [4] the test system is HER2 positive HCC1954 cells.
Series [5] relates to HCC1569 cells.

Consider `CS(=O)(=O)CCNCc1ccc(-c2ccc3ncnc(Nc4ccc(OCc5cccc(F)c5)c(Cl)c4)c3c2)o1` [lapatinib], for which, in series [1], the “In Vitro Cytotoxicity CD50, NCI-N87” value was 112 nM. Further, the “In Vitro Cytotoxicity CD50, JIMT-1” value in series [2] was 5,650 nM. Also, in series [3], the “In Vitro Cytotoxicity CD50, NCI/ADR-RES-HER2+” value was 2,704 nM. The “In Vitro Cytotoxicity CD50, HCC1954” value in series [4] stood at 786 nM. The “In Vitro Cytotoxicity CD50, HCC1569” value in series [5] came to 885 nM.

The values are drawn from patent US20230331785A1 (priority 2018, published 2023).
